Measurements published in patent US6825185B2, “Substituted aryl compounds as novel cyclooxygenase-2 selective inhibitors, compositions and methods of use” (NitroMed, Inc., priority 2000, dated 2004).

Columns and labels:
COX-1 [1] = target: T1, COX-1 (Homo sapiens, UniProt P23219); assay: Human COX-1 enzyme activity (COX Inhibitor Screening Assay, prostaglandin EIA); format: biochemical; design: purchased Cayman Chemical; details: test compound at 100 μM
Method: The human COX-1 and COX-2 enzyme activities and the measurement of the prostaglandin products synthesized were performed using the COX Inhibitor Screening Assay (Cayman Chemical, Ann Arbor, Mich.), which also contained the Prostaglandin Screening EIA Kit, used for prostaglandin quantification). The test compounds were dissolved at 50 times the highest final reaction concentration in DMSO or any other suitable solvent as stock solutions. These stock solutions were then diluted in the same solvent. Eight glass test tubes (13×100 mm) were placed in a 25° C. water bath. To each test tube was added 950 μL of reaction buffer (0.1 M Tris-HCl, pH 8.0, containing 5 mM EDTA, and 2 mM phenol), 10 μL of 100 µM heme solution, and 10 μL (5 units) of either human COX-1 or COX-2 enzyme and the resulting mixture was incubated for 2 minutes. Twenty μL of the solvent was added to one tube (100% initial activity or solvent control) and 20 μL of each dilution of the test compound was added to one tube each. Each tube was vortexed immediately after the addition. The enzyme was incubated with the inhibitor for 20 minutes at 25° C. The enzymatic reaction was then initiated by the addition of 10 μL of freshly prepared 10 mM arachidonic acid (neutralized with KOH), vortexed and then incubated for 2 minutes (or, in some cases as indicated, 30 seconds) at 37° C. The reaction was terminated by the addition of 50 μL of 1 M HCl, vortexed and placed at room temperature. One hundred μL of a saturated stannous chloride solution (50 mg/mL of 0.1 M HCl) was added and the reaction mixture was allowed to stand at room temperature for at least 5 minutes.
The prostaglandins (PG) produced in the reactions were assayed, after a 2,000-fold dilution, using the Prostaglandin Screening EIA Kit (Cayman Chemical, Ann Arbor, Mich.). The assay contains an antibody with broad specificity for all the prostaglandin families (PGF, PGE, PGD, and thromboxane B-type) synthesized in the COX-1/COX-2 reactions. The synthesized prostaglandin competes with a PG-tagged acetylcholine esterase tracer for binding to the PG antibody. Binding of synthesized PG lowers the colorimetric development of the Ellman's Reagent (computed as %B/B0). The actual amount of synthesized PG was interpolated from a standard curve using known amounts of supplied prostaglandin E2 (PGE2) (PGE2 concentration vs. %B/B0). The data generated were the mean±standard deviation of triplicate wells in the EIA for a single reaction at a given inhibitor concentration. A plot of % of control (i.e., the solvent control without inhibitor) vs. test compound inhibitor concentration for both isoenzymes was used to determine the IC50 's for COX-1 and COX-2 for that test compound, when IC50's were calculated. The % inhibition for COX-1 and COX-2 enzyme activity by the test compounds at the indicated concentrations are given in Table 1.

COX-1 [2] = target: T1, COX-1; assay: COX-1 enzyme activity in human whole blood (A23187 stimulated, thromboxane B2 EIA); format: cell-based; design: Human blood (≈50 mL) from male or female donors who had not received any aspirin or NSAIDs for 14 days; endogenous in cells; host or cells: human whole blood from donors; details: test compound at 100 μM

T1 sequence (P23219 24-599): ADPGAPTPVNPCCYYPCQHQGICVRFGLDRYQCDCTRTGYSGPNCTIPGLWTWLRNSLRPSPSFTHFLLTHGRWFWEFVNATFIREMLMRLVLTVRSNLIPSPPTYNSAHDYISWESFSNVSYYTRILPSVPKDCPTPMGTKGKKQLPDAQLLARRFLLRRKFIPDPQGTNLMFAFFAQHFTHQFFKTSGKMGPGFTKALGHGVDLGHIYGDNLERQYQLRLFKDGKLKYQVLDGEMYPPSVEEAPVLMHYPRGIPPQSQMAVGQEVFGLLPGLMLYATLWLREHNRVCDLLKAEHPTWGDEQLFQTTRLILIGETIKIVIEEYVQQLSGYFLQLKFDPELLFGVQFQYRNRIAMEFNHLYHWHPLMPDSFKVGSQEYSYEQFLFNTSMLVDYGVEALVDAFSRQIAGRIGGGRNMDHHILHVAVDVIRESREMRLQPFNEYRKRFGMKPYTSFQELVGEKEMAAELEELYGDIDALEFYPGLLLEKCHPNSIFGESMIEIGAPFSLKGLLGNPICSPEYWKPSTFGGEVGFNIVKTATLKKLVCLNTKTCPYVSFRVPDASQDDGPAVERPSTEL

CS(=O)(=O)c1ccc(-c2cc3c(cc2Cc2cccnc2)OCO3)cc1 [Example 6c, 4-(Methylsulfonyl)-1-(6-(3-pyridylmethyl)(2H-benzo(3,4-d)1,3-dioxolan-5-yl))benzene]
COX-1 Inhibition (% at 100 μM) (COX-1 [1]): 30% | COX-1 Inhibition (% at 100 μM) (COX-1 [2]): 20%

CS(=O)(=O)c1ccc(-c2cc3c(cc2C(=O)c2ccccc2)OCO3)cc1 [Example 3d, 6-(4-(Methylsulfonyl)phenyl)(2H-benzo(d)1,3-dioxolan-5-yl) phenyl ketone]
COX-1 Inhibition (% at 100 μM) (COX-1 [1]): 0% | COX-1 Inhibition (% at 100 μM) (COX-1 [2]): 75%

CS(=O)(=O)c1ccc(-c2cc3c(cc2CC2CCCCC2)OCO3)cc1 [Example 1e, 1-(6-(Cyclohexylmethyl)(2-H-benzo(3,4-d)1,3-dioxolen-5-yl))-4-(methylsulfonyl) benzene]
COX-1 Inhibition (% at 100 μM) (COX-1 [1]): 0% | COX-1 Inhibition (% at 100 μM) (COX-1 [2]): 40%

CS(=O)(=O)c1ccc(-c2cc3c(cc2C=C2CCCC2)OCO3)cc1 [Example 10a, 4-(6-(Cyclopentylidenemethyl)(2H-benzo(3,4-d)1,3-dioxolan-5-yl))-1-(methylsulfonyl)benzene]
COX-1 Inhibition (% at 100 μM) (COX-1 [1]): 30% | COX-1 Inhibition (% at 100 μM) (COX-1 [2]): 70%

CS(=O)(=O)c1ccc(-c2cc3c(cc2Cc2cc(F)cc(F)c2)OCO3)cc1 [Example 15c, 5-(1-(3′,5′-Difluorophenyl)methyl)-1,2-methylenedioxy-4-(4-methylsulfonylphenyl)benzene]
COX-1 Inhibition (% at 100 μM) (COX-1 [1]): 15% | COX-1 Inhibition (% at 100 μM) (COX-1 [2]): 75%

CS(=O)(=O)c1ccc(-c2cc3c(cc2CN2CCCCC2=O)OCO3)cc1 [Example 9c]
COX-1 Inhibition (% at 100 μM) (COX-1 [1]): 70% | COX-1 Inhibition (% at 100 μM) (COX-1 [2]): 35%
